{"source": "patent US8067424B2", "about": "“Selective inhibitors for cyclin-dependent kinases” (Emory University, priority 2007, dated 2011)", "assay_type_in_all_cases": "biochemical", "key": {"CAMKKβ": {"biological_target": "CAMKKβ (Homo sapiens, UniProt Q96RR4)", "assay": "Kinase screen: CAMKKb assay", "experimental": "(§1) Generally, the same procedure was used for all assays. Since the total assay volume was 25.5 microliters, 0.5 microliters of inhibitors at 51× assay concentration were added to the plates before any other addition.\n(§2) The basic procedure was to add 0.5 microliters inhibitor/control in DMSO to plate. Fifteen microliters of enzyme/substrate/buffer mix were added and incubated for 5 min. Ten microliters MgATP at the relevant concentration were added and incubated for 30 min. The assay was stopped by adding 5 microliters of 3% orthophosphoric acid. The assay was transferred to a p81 filter plate and read in a scintillation counter of 30 sec/well. Note that this assay procedure was not followed for MKK1, which instead involved a two-step assay, and PKC alpha, which required the addition of lipid vesicles.\n(500-1000 cpm/pmole) and incubated for 30 mins at room temperature. […] Assays were harvested onto P81 Unifilter plates using a wash buffer of 50 mM orthophosphoric acid."}, "p38α MAPK": {"biological_target": "p38α MAPK (Homo sapiens, UniProt Q16539)", "sequence (Q16539 whole entry)": "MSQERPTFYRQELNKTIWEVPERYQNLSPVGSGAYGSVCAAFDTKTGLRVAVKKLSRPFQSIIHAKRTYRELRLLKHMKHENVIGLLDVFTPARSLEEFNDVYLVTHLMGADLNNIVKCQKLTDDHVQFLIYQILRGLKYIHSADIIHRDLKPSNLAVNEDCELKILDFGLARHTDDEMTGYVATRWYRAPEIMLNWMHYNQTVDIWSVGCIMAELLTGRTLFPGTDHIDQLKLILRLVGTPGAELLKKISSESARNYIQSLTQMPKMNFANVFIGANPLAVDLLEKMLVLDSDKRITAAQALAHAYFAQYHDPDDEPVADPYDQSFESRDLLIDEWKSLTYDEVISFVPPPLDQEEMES", "assay": "Kinase screen: SAPK 2a/p38 assay", "experimental": "as §1, §2\nSAPK 2a/p38 assay: SAPK 2a/p38 (5-20 mU diluted in 50 mM Tris pH 7.5, 0.1 mM EGTA, 0.1 mM Na3VO4, 0.1% b-mercaptoethanol, 1 mg/ml BSA) was assayed against MBP in a final volume of 25.5 μl containing 25 mM Tris pH 7.5, 0.1 mM EGTA, 0.33 mg/ml MBP, 10 mM magnesium acetate and 0.05 mM [33P-g-ATP] (50-1000 cpm/pmole) and incubated for 30 min at room temperature. Assays were stopped by addition of 5 μl of 0.5 M (3%) orthophosphoric acid and then harvested onto P81 Unifilter plates with a wash buffer of 50 mM orthophosphoric acid."}, "ERK2": {"biological_target": "ERK2 (Homo sapiens, UniProt P28482)", "sequence (P28482 whole entry, species assumed)": "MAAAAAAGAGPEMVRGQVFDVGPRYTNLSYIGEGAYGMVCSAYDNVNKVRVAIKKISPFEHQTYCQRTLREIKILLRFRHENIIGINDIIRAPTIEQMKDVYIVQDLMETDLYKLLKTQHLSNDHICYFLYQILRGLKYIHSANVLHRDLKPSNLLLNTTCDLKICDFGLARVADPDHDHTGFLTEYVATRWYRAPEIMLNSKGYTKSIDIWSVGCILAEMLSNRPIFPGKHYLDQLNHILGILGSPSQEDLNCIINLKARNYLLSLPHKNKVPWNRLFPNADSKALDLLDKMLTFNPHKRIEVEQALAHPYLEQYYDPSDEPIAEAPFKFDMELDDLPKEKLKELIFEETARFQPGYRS", "assay": "Kinase screen: MAPK2/ERK2 assay", "experimental": "as §1, §2\nMAPK2/ERK2 assay: MAPK/ERK2 (5-20 mU diluted in 50 mM Tris pH 7.5, 0.1 mM EGTA, 0.1 mM Na3VO4, 0.1% b-mercaptoethanol, 1 mg/ml BSA) was assayed against MBP in a final volume of 25.5 μl in 25 mM Tris pH 7.5, 0.1 mM EGTA, 0.33 mg/ml MBP, 10 mM magnesium acetate and 0.05 mM [33P-g-ATP] (500-1000 cpm/pmole) and incubated for 30 min at room temperature. Assays were stopped by addition of 5 μl of 0.5 M (3%) orthophosphoric acid and then harvested onto P81 Unifilter plates with a wash buffer of 50 mM orthophosphoric acid."}, "PLK1 (Okadaic Acid)": {"biological_target": "PLK1 (Okadaic Acid) (Homo sapiens, UniProt P53350)", "sequence (P53350 whole entry, species assumed)": "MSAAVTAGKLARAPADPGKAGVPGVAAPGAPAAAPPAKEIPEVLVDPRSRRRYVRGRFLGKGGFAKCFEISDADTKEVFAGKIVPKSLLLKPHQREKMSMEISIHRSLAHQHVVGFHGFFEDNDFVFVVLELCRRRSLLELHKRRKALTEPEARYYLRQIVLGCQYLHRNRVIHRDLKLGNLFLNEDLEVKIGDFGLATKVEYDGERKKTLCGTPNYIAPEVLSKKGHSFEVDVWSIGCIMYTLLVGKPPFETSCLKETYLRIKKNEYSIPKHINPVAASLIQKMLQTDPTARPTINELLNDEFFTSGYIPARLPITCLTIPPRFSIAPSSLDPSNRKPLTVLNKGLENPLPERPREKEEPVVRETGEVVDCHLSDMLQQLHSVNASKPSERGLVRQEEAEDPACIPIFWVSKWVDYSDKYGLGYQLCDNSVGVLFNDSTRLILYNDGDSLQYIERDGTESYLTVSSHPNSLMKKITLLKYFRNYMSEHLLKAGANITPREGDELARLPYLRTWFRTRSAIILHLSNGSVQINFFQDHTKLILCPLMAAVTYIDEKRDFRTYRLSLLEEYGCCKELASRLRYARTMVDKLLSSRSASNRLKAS", "assay": "Kinase screen: PLK1 (Okadaic Acid) assay", "experimental": "as §1, §2\n(50-1000 cpm/pmole) and incubated for 30 min at room temperature. Assays were stopped by addition of 5 μl of 0.5 M (3%) orthophosphoric acid and then harvested onto P81 Unifilter plates with a wash buffer of 50 mM orthophosphoric acid."}, "CK1": {"biological_target": "CK1 (Homo sapiens, UniProt P48730)", "sequence (P48730 whole entry)": "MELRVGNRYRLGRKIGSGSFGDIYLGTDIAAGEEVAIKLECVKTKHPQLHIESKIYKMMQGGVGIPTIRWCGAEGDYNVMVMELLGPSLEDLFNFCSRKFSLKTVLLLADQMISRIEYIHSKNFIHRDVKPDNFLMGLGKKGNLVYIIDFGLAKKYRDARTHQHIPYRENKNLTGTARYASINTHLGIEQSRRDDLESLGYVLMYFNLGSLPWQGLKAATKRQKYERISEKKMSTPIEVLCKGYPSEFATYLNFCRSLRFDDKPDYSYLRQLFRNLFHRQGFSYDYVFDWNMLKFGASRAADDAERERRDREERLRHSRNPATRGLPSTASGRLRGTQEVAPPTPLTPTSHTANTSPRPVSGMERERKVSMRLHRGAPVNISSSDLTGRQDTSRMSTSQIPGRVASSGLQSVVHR", "assay": "Kinase screen: CK1 assay", "experimental": "as §2, with “Generally, the same procedure was used for all assays. […] The basic” for “The basic”, “30 min. […] The assay” for “30 min. The assay was stopped by adding 5 microliters of 3% orthophosphoric acid. The assay”, “lipid vesicles. CK1 assay: […]” for “lipid vesicles.”"}, "PAK6": {"biological_target": "PAK6 (Homo sapiens, UniProt Q9NQU5)", "sequence (Q9NQU5 whole entry, species assumed)": "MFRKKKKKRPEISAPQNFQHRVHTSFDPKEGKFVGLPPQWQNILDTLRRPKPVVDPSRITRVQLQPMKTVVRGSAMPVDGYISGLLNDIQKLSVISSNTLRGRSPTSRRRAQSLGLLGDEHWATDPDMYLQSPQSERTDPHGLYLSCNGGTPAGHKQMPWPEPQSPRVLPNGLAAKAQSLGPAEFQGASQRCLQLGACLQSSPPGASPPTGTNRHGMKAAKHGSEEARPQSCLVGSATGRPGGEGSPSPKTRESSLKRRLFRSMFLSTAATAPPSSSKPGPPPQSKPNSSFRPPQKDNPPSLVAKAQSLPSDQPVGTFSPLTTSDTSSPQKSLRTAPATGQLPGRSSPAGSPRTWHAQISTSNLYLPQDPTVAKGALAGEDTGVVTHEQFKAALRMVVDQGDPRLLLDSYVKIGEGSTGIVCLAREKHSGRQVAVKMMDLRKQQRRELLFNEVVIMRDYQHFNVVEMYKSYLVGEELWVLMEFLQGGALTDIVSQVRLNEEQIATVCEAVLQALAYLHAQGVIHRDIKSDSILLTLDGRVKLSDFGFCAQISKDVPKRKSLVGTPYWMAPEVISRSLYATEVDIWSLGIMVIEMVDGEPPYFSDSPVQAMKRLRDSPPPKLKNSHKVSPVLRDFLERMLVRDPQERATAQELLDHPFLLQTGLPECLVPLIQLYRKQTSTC", "assay": "Kinase screen: PAK6 assay", "experimental": "as §1, §2\nPAK6 assay: PAK6 (5-20 mU diluted in 50 mM Tris pH 7.5, 0.1 mM EGTA, 0.1% b-mercaptoethanol, 1 mg/ml BSA) was assayed against a substrate peptide ([…]) (SEQ ID NO: 30) in a final volume of 25.5 μl containing 50 mM Tris pH 7.5, 0.05% b-mercaptoethanol, 300 μM substrate peptide, 10 mM magnesium acetate and 0.02 mM [33P-g-ATP] (50-1000 cpm/pmole) and incubated for 30 min at room temperature. Assays were stopped by addition of 5 μl of 0.5 M (3%) orthophosphoric acid and then harvested onto P81 Unifilter plates with a wash buffer of 50 mM orthophosphoric acid."}, "RSK1": {"biological_target": "RSK1 (Homo sapiens, UniProt Q15418)", "sequence (Q15418 whole entry, species assumed)": "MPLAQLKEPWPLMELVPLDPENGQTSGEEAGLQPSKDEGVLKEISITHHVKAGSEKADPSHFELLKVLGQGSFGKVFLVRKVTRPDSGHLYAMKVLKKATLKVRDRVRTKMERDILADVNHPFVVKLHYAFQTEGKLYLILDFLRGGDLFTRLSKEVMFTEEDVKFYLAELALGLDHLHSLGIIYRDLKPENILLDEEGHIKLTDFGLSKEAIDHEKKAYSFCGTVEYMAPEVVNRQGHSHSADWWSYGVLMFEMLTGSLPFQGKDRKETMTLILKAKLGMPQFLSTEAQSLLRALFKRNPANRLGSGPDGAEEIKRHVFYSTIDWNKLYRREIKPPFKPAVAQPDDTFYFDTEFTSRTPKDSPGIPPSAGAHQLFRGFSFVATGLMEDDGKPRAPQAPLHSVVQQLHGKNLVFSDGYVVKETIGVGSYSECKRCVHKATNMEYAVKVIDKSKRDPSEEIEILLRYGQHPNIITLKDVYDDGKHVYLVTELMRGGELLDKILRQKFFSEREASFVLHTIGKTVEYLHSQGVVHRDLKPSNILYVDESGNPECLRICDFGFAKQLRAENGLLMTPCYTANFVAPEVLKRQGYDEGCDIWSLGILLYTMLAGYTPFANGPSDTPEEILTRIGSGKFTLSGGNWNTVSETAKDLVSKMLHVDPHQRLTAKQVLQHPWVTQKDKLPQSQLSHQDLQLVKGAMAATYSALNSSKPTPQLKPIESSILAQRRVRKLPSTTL", "assay": "Kinase screen: MAPKAP-K1a assay", "experimental": "as §1, §2\nMAPKAP-K1a assay: MAPKAP-K1a (5-20 mU diluted in 20 mM MOPS pH 7.5, 1 mM EDTA, 0.01% Brij35, 5% glycerol, 0.1% b-mercaptoethanol, 1 mg/ml BSA) was assayed against […] (SEQ ID NO: 3) in a final volume of 25.5 μl containing 50 mM Na-b-glycerophosphate pH 7.5, 0.5 mM EDTA, 30 μM substrate peptide, 10 mM magnesium acetate and 0.05 mM [33P-g-ATP] (50-1000 cpm/pmole) and incubated for 40 min at room temperature. Assays were stopped by addition of 5 μl of 0.5 M (3%) orthophosphoric acid and then harvested onto P81 Unifilter plates with a wash buffer of 50 mM orthophosphoric acid."}, "IRR": {"biological_target": "IRR (Homo sapiens, UniProt P14616)", "sequence (P14616 27-1297, species assumed)": "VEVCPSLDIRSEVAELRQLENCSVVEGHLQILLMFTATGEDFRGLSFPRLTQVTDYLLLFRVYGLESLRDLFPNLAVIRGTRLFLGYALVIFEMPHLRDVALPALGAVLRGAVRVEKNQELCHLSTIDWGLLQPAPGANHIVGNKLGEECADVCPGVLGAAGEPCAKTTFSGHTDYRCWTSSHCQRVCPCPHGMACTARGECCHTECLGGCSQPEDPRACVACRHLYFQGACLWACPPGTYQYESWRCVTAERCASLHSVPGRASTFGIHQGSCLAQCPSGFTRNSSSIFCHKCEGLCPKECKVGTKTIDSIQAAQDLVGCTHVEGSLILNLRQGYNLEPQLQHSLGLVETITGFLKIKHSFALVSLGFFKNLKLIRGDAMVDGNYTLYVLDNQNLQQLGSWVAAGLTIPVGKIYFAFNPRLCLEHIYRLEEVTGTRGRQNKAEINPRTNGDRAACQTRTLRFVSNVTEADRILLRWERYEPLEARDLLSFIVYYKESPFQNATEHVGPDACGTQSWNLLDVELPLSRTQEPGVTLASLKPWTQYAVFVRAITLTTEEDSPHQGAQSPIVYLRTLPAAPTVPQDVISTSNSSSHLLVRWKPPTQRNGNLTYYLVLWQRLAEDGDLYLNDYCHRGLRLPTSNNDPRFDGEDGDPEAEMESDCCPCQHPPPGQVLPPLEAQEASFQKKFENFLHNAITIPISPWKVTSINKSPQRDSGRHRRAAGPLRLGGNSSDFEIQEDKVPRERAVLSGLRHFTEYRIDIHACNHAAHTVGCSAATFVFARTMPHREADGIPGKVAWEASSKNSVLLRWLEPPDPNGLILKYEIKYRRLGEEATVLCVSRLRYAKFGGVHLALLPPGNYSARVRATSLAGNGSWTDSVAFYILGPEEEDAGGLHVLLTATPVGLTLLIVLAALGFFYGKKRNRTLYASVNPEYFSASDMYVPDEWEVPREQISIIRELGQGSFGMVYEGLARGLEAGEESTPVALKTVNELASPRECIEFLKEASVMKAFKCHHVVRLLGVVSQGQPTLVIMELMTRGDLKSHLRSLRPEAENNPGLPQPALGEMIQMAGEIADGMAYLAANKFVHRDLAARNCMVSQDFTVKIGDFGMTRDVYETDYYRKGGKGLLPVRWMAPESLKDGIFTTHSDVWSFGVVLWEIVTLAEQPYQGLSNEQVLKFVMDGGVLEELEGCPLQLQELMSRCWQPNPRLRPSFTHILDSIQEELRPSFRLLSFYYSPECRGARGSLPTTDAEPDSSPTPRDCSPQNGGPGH", "assay": "Kinase screen: IRR assay", "conditions": "10 micromolar compound; for remaining activity at 10 µM: read-out: mean activity remaining (as a percentage of the original activity), IRR", "experimental": "as §1, §2\nIRR assay: 5-20 mU of IRR (diluted in 50 mM Hepes (pH 7.5), 0.1 mM EGTA) was assayed against MBP in a final volume of 25.5 μl containing 50 mM Hepes (pH 7.5), 0.1 mM EGTA, 0.33 mg/ml MBP, 10 mM magnesium acetate and 0.005 mM [33P-g-ATP](500-1000 cpm/pmole) and incubated for 30 mins at room temperature. Assays were stopped by addition of 5 μl of 0.5M (3%) orthophosphoric acid. Assays were harvested onto P81 Unifilter plates using a wash buffer of 50 mM orthophosphoric acid."}, "[1]": {"conditions": "0.5 h, read-out: mean activity remaining (as a percentage of the original activity), CAMK Kb"}, "[2]": {"conditions": "10 micromolar compound, read-out: mean activity remaining (as a percentage of the original activity), p38a2 MAPK"}, "[3]": {"conditions": "10 micromolar compound, read-out: mean activity remaining (as a percentage of the original activity), ERK2"}, "[4]": {"conditions": "10 micromolar compound, read-out: mean activity remaining (as a percentage of the original activity), PLK 1 (Okadaic Acid)"}, "[5]": {"conditions": "0.5 h, 10 micromolar compound, read-out: mean activity remaining (as a percentage of the original activity), CK 1"}, "[6]": {"conditions": "10 micromolar compound, read-out: mean activity remaining (as a percentage of the original activity), PAK6"}, "[7]": {"conditions": "10 micromolar compound, read-out: mean activity remaining (as a percentage of the original activity), RSK1"}}, "note": "Like-named read-outs stand apart in the source and are kept apart here."}
{"smiles": "CC(C)c1cnn2c(NCc3ccccc3F)cc(NCCCCCN)nc12", "note": "[ICEC-0232]", "values": [{"measurement": "mean activity remaining (as a percentage of the original activity), CAMK Kb", "setting": "CAMKKβ; 10 micromolar compound", "value": 18, "unit": "%"}, {"measurement": "mean activity remaining (as a percentage of the original activity), p38a2 MAPK", "setting": "p38α MAPK; 10 micromolar compound", "value": 86, "unit": "%"}, {"measurement": "mean activity remaining (as a percentage of the original activity), ERK2", "setting": "ERK2; 10 micromolar compound", "value": 70, "unit": "%"}, {"measurement": "mean activity remaining (as a percentage of the original activity), PLK 1 (Okadaic Acid)", "setting": "PLK1 (Okadaic Acid); 10 micromolar compound", "value": 125, "unit": "%"}, {"measurement": "mean activity remaining (as a percentage of the original activity), CK 1", "setting": "CK1; 10 micromolar compound", "value": 9, "unit": "%"}, {"measurement": "mean activity remaining (as a percentage of the original activity), PAK6", "setting": "PAK6; 10 micromolar compound", "value": 85, "unit": "%"}, {"measurement": "mean activity remaining (as a percentage of the original activity), RSK1", "setting": "RSK1; 10 micromolar compound", "value": 24, "unit": "%"}, {"measurement": "mean activity remaining (as a percentage of the original activity), IRR", "setting": "IRR", "value": 29, "unit": "%"}]}
{"smiles": "CC(C)c1cnn2c(NCc3ccccc3)cc(NCCCCCCCN)nc12", "note": "[BS-181]", "values": [{"measurement": "remaining activity at 10 µM", "setting": "CAMKKβ; CAMKKβ, 10 μM, read-out: Mean Remaining Enzyme Activity (%)", "value": 67, "unit": "%"}, {"measurement": "remaining activity at 10 µM", "setting": "p38α MAPK; p38α MAPK, 10 μM, read-out: Mean Remaining Enzyme Activity (%)", "value": 95, "unit": "%"}, {"measurement": "remaining activity at 10 µM", "setting": "ERK2; ERK2, 10 μM, read-out: Mean Remaining Enzyme Activity (%)", "value": 86, "unit": "%"}, {"measurement": "remaining activity at 10 µM", "setting": "PLK1 (Okadaic Acid); PLK1 (Okadaic Acid), 10 μM, read-out: Mean Remaining Enzyme Activity (%)", "value": 108, "unit": "%"}, {"measurement": "remaining activity at 10 µM", "setting": "CK1; CK1, 10 μM, read-out: Mean Remaining Enzyme Activity (%)", "value": 29, "unit": "%"}, {"measurement": "remaining activity at 10 µM", "setting": "PAK6; PAK6, 10 μM, read-out: Mean Remaining Enzyme Activity (%)", "value": 95, "unit": "%"}, {"measurement": "remaining activity at 10 µM", "setting": "RSK1; RSK1, 10 μM, read-out: Mean Remaining Enzyme Activity (%)", "value": 67, "unit": "%"}]}
{"smiles": "CC[C@H](CO)Nc1cc(NCc2ccccc2)n2ncc(C(C)C)c2n1", "note": "[ICEC0067]", "values": [{"measurement": "remaining activity at 10 µM", "setting": "CAMKKβ; [1]", "value": 29, "unit": "%"}, {"measurement": "remaining activity at 10 µM", "setting": "p38α MAPK; [2]", "value": 99, "unit": "%"}, {"measurement": "remaining activity at 10 µM", "setting": "ERK2; [3]", "value": 59, "unit": "%"}, {"measurement": "remaining activity at 10 µM", "setting": "PLK1 (Okadaic Acid); [4]", "value": 93, "unit": "%"}, {"measurement": "remaining activity at 10 µM", "setting": "CK1; [5]", "value": 16, "unit": "%"}, {"measurement": "remaining activity at 10 µM", "setting": "PAK6; [6]", "value": 78, "unit": "%"}, {"measurement": "remaining activity at 10 µM", "setting": "RSK1; [7]", "value": 62, "unit": "%"}, {"measurement": "remaining activity at 10 µM", "setting": "IRR", "value": 23, "unit": "%"}]}
{"smiles": "C=C[C@H](CO)Nc1cc(NCc2ccccc2)n2ncc(C(C)C)c2n1", "note": "[ICEC0065]", "values": [{"measurement": "remaining activity at 10 µM", "setting": "CAMKKβ; [1]", "value": 31, "unit": "%"}, {"measurement": "remaining activity at 10 µM", "setting": "p38α MAPK; [2]", "value": 94, "unit": "%"}, {"measurement": "remaining activity at 10 µM", "setting": "ERK2; [3]", "value": 59, "unit": "%"}, {"measurement": "remaining activity at 10 µM", "setting": "PLK1 (Okadaic Acid); [4]", "value": 104, "unit": "%"}, {"measurement": "remaining activity at 10 µM", "setting": "CK1; [5]", "value": 19, "unit": "%"}, {"measurement": "remaining activity at 10 µM", "setting": "PAK6; [6]", "value": 82, "unit": "%"}, {"measurement": "remaining activity at 10 µM", "setting": "RSK1; [7]", "value": 79, "unit": "%"}, {"measurement": "remaining activity at 10 µM", "setting": "IRR", "value": 24, "unit": "%"}]}
{"smiles": "CC(C)c1cnn2c(NCc3ccccc3)cc(N[C@@H](CO)[C@H](O)CO)nc12", "note": "[ICEC0318, (3S)-3-(7-(Benzylamino)-3-isopropylpyrazolo[1,5-a]pyrimidin-5-ylamino)butane-1,2,4-triol]", "values": [{"measurement": "remaining activity at 10 µM", "setting": "CAMKKβ; [1]", "value": 23, "unit": "%"}, {"measurement": "remaining activity at 10 µM", "setting": "p38α MAPK; [2]", "value": 98, "unit": "%"}, {"measurement": "remaining activity at 10 µM", "setting": "ERK2; [3]", "value": 26, "unit": "%"}, {"measurement": "remaining activity at 10 µM", "setting": "PLK1 (Okadaic Acid); [4]", "value": 97, "unit": "%"}, {"measurement": "remaining activity at 10 µM", "setting": "CK1; 0.5 h, read-out: mean activity remaining (as a percentage of the original activity), CK 1", "value": 19, "unit": "%"}, {"measurement": "remaining activity at 10 µM", "setting": "PAK6; [6]", "value": 85, "unit": "%"}, {"measurement": "remaining activity at 10 µM", "setting": "RSK1; [7]", "value": 75, "unit": "%"}, {"measurement": "remaining activity at 10 µM", "setting": "IRR", "value": 32, "unit": "%"}]}
